The results in this text go back to patent USRE47689E1, “Compounds for treating spinal muscular atrophy” (PTC Therapeutics, Inc., priority 2011, dated 2019).

Molecules are shown by their SMILES.

Assay [1] has as its system full length and Δ7 SMN2 mRNAs. The assay is described as follows: Endogenous SMN2 mRNA end-point semi-quantitative RT-PCR splicing assay in animal tissues. It is filed as in vivo, mouse. To be noted: C/C-allele SMA mice, brain and muscle, oral gavage twice per day for 10 days, agarose gel. Here is the method: The endpoint reverse transcription-PCR (RT-PCR) splicing assay is used to quantify the levels of the full length and Δ7 SMN2 mRNAs in tissues from mice treated with test compound.
Protocol. C/C-allele SMA mice are treated by oral gavage two times per day for 10 days with test compounds in 0.5% HPMC and 0.1% Tween-80. Tissue samples are collected and snap frozen for RNA purification.
Tissue samples (20-40 mg) are homogenized in QIAzol Lysis Reagent for 2 minutes at 20 Hz in the TissueLyser II using one stainless steel bead. After addition of chloroform, the homogenate is separated into aqueous and organic phases by centrifugation. RNA partitioned to the upper, aqueous phase is extracted and ethanol is added to provide appropriate binding conditions. The sample is then applied to the RNeasy spin column from the RNeasy Mini Kit, where total RNA binds to the membrane. The RNA is eluted in RNase-free water then stored at −20° C.
SMN2 spliced products are identified using the following amplification primers in Table 8. These primers hybridize to a nucleotide sequence in exon 6 (SMN Forward D, SEQ ID NO. 13) (nucleotide 22 to nucleotide 46) and exon 8 (SMN Reverse C, SEQ ID NO. 12) common to human SMN1 and SMN2 mRNAs.
To synthesize cDNA, combine 1 μL of RNA solution (25-50 ng), 4 μL of 5× iScript reaction mix, 1 μL of reverse transcriptase, and 10 μL of water are combined and incubates 25° C. for 5 min followed by 42° C. for 30 min followed by 85° C. for 5 min. cDNA solution is stored at −20° C.
To perform endpoint PCR, 5 μL of cDNA, 0.2 μL of 100 μM forward primer, 0.2 μL of 100 μM reverse primer, and 22.5 μL of polymerase super mix are combined in a 96 well semiskirted PCR plate. PCR is carried out at the following temperatures for indicated time: Step 1: 94° C. (2 min), Step 2: 94° C. (30 sec), Step 3: 55° C. (30 sec), Step 4: 68° C. (1 min), then repeat Steps 2 to 4 for a total of 33 cycles, then hold at 4° C.
10 μL of each PCR sample is electrophoretically separated on a 2% agarose E-gel for 14 minutes, stained with ds DNA staining reagents (e.g., ethidium bromide) and visualized using a gel imager.

A further assay has as its system Smn protein. The assay is described as follows: Smn protein assay in human motor neurons. It counts as cell-based. To be noted: human motor neurons derived from SMA iPS cells; increasing concentrations; 72 hours; confocal fluorescence microscopy. Here is the method:
Smn immunofluorescent confocal microscopy is used to quantify the level of Smn protein in human motor neurons treated with test compounds.
Protocol. Human motor neurons derived from SMA iPS cells (Ebert et al., Nature, 2009, […]; and, Rubin et al., BMC Biology, 2011, 9:42) are treated with test compound at various concentrations for 72 hours. The level of Smn protein in the cell nucleus is quantified using Smn immunostaining and confocal fluorescence microscopy essentially as described in Makhortova et al., Nature Chemical Biology, 2011, 7:544. The level of Smn protein in compound-treated samples is normalized to that in vehicle-treated samples and plotted as a function of the compound concentration.

Take `CCN1CCN(c2ccc3cc(-c4cn5cc(C)nc(C)c5n4)c(=O)oc3c2)C[C@@H]1C` [Cpd 626, 3-(6,8-dimethylimidazo[1,2-a]pyrazin-2-yl)-7-[(3S)-4-ethyl-3-methylpiperazin-1-yl]-2H-chromen-2-one]: in assay [1], the “SMN2 FL mRNA” value is recorded as “progressively more SMN2 FL mRNA” and the “SMN2 Δ7 mRNA” value is “less SMN2 Δ7 mRNA”. Besides, in the assay on Smn protein, the “Smn protein in the nucleus” value is reported as “progressively more Smn protein in the nucleus”.
Regarding `CC(C)NCCc1ccc2cc(-c3nc4c(Cl)cccc4s3)c(=O)oc2c1` [Cpd 35, 3-(4-chloro-1,3-benzothiazol-2-yl)-7-[2-(propan-2-ylamino)ethyl]-2H-chromen-2-one], in assay [1], the “SMN2 FL mRNA” value was “progressively more SMN2 FL mRNA” and the “SMN2 Δ7 mRNA” value is “less SMN2 Δ7 mRNA”. The “Smn protein in the nucleus” value in the assay on Smn protein was “progressively more Smn protein in the nucleus”.
